Data: patent US12252701B2, “Chimeric antigen receptor T cell therapy” (KITE PHARMA, INC., priority 2020, dated 2025)
Like-named read-outs stand apart in the source and are kept apart here.

Experiments:
[1] = test system: CAR-T cells; assay: CAR-T cell expansion assay (KIP-1 or CD3/CD28 stimulation); conditions: for % viability: CD3/CD28; for % viabili.: CD3/CD28 stimulation; for % viabi.: KIP-1 stimulation
Procedure: (§1) 96-well plates were coated with 100 μl of KIP-1 antibody per well at 1 μg/ml in PBS and plates were incubated at 4° C. overnight. CAR-T cells were thawed and were rested in ImmunoCult expansion medium and incubated overnight at 37° C. Cells were then counted and resuspended at 2 million cells/ml and seed at 200,000 cells per well in 100 μl of expansion medium with 10 ng/ml recombinant IL2. For groups treated with KIP-1, 100 μl of expansion medium were added with 2× final drug dilutions. For CD3/CD28 treated groups, 100 μl of expansion media were added with 2× final drug dilutions containing 25 μl/ml of CD3/CD28 T cell activator from StemCell Technologies. Cells were then incubated at 37° C. After 4 days, cells were counted and diluted 1 to 8-fold in expansion media and then transferred to a 24-well plate. Cell counts were repeated at day 7 and transferred to T25 flasks. On day 11, all cells were harvested and counted.

[2] = in vitro; conditions: human, CAR-T cells
Procedure: as §1

[3] = cited from earlier work
[4] = test system: phospho-STAT-1, -3 and -5 in CD4, CD8 T cells and monocytes (CAR T product, PBMCs); assay: Intracellular phospho-STAT-1, -3, -5 by flow cytometry in immune cell subsets of CAR T product and PBMCs; type: cell-based, human; set-up: Primary Cell IL-6 pSTAT5 signaling (% inhibition) / Primary Cell IL-6 pSTAT1 signaling (% inhibition) / Primary Cell IL-6 pSTAT3 signaling (% inhibition) / Primary cell GM-CSF-pSTAT5, inhibition: concentration or dose not given beside the values
Procedure: Further experiments were performed to look at impacts of JAK inhibitors on STAT phosphorylation in various immune cell subsets.

[5] = test system: NALM6.GFP.LUC.CD19 target cells; assay: Serial killing assay of CAR-T, percent cytotoxicity by luciferase detection; conditions: two different E:T ratios, dose titration
[6] = Clinical pharmacokinetic data converted to in vitro concentrations; conditions: human, in vivo
Description: Given the different potencies of the JAK inhibitors and different pharmacokinetic properties for each drug, it was sought to test each drug at a relevant range of physiological concentrations based on clinical dosing and reported pharmacokinetic data from repeat dose studies. Reported Cmax values in patient sera were converted to in vitro concentrations and adjusted for reported plasma protein binding.

[7] = test system: CD19 CAR T cells; assay: CAR T cell cytokine production (Luminex) under CD19 K562, KIP-1 or CD2/3/28 stimulation; conditions: 72 h; for IC50: Homo sapiens, T-cell
Procedure: Cryopreserved healthy donor CLP CD19 CAR T cells were thawed and rested overnight in 100 U/ml of IL-2 at 1×10^6/ml. 2.5×10^5 CD19 CART cells were plated in 96-well RB plate wells in a total volume of 200 μl of R10 culture media. […] CD19 CART cell cytokine production was allowed to proceed through 72 hours in the presence of stimulator and JAKi or steroid. Following 72 h of culture, 100 μl of the cell supernatant of each well were harvested and stored at −80° C. for later Luminex/Bioplex-200 cytokine analysis. Briefly, stored supernatants were thawed and 50 μl of the sample was assayed for cytokines using a ThermoFisher Procarta Plex 19-plex human cytokine assay kit (ThermoFisher, Carlsbad, CA) according to kit manufacturer's instructions and detected using a BioRad Bioplex-200 instrument. The data points generated from the luminex cytokine assay were transferred to a GraphPad PRISM IC50 dose-response curve analysis to generate IC50 or potency values for the JAKi's and steroids tested.

PPB adj. in Vitro concentration [6]: 97 nM | clinically relevant dose level (in vitro concentration) [6]: ~100 nM | IC50 ([7]; read-out: Suppression of cytokine production, GMCSF (IC50), CD3/CD28 stimulation, 72 h): < 100 nM | IC50 ([7]; read-out: Suppression of cytokine production, GMCSF (IC50), K562-CD19 stimulation, 72 h): > 10000 nM | IC50 ([7]; read-out: Suppression of cytokine production, GMCSF (IC50), KIP-1 stimulation, 72 h): < 100 nM | IC50 ([7]; read-out: Suppression of cytokine production, GzB (IC50), CD3/CD28 stimulation, 72 h): < 100 nM | IC50 ([7]; read-out: Suppression of cytokine production, GzB (IC50), K562-CD19 stimulation, 72 h): 1030 nM | IC50 ([7]; read-out: Suppression of cytokine production, GzB (IC50), KIP-1 stimulation, 72 h): > 10000 nM | IC50 ([7]; read-out: Suppression of cytokine production, IFNg (IC50), CD3/CD28 stimulation, 72 h): > 10000 nM | IC50 ([7]; read-out: Suppression of cytokine production, IFNg (IC50), KIP-1 stimulation, 72 h): > 10000 nM | IC50 ([7]; read-out: Suppression of cytokine production, IL-2Ra (IC50), CD3/CD28 stimulation, 72 h): < 100 nM | IC50 ([7]; read-out: Suppression of cytokine production, IL-2Ra (IC50), K562-CD19 stimulation, 72 h): < 100 nM | IC50 ([7]; read-out: Suppression of cytokine production, IL-2Ra (IC50), KIP-1 stimulation, 72 h): < 100 nM | IC50 ([7]; read-out: Suppression of cytokine production, IL-6 (IC50), CD3/CD28 stimulation, 72 h): < 100 nM | IC50 ([7]; read-out: Suppression of cytokine production, IL-6 (IC50), KIP-1 stimulation, 72 h): < 100 nM | IC50 ([7]; read-out: Suppression of cytokine production, IL-8 (IC50), CD3/CD28 stimulation, 72 h): < 100 nM | IC50 ([7]; read-out: Suppression of cytokine production, IL-8 (IC50), K562-CD19 stimulation, 72 h): < 100 nM | IC50 ([7]; read-out: Suppression of cytokine production, IL-8 (IC50), KIP-1 stimulation, 72 h): < 100 nM | IC50 ([7]; read-out: Suppression of cytokine production, IL-10 (IC50), CD3/CD28 stimulation, 72 h): < 100 nM | IC50 ([7]; read-out: Suppression of cytokine production, IL-10 (IC50), K562-CD19 stimulation, 72 h): < 100 nM | IC50 ([7]; read-out: Suppression of cytokine production, IL-10 (IC50), KIP-1 stimulation, 72 h): < 100 nM | IC50 ([7]; read-out: Suppression of cytokine production, MCP-1 (IC50), CD3/CD28 stimulation, 72 h): < 100 nM | IC50 ([7]; read-out: Suppression of cytokine production, MCP-1 (IC50), K562-CD19 stimulation, 72 h): < 100 nM | IC50 ([7]; read-out: Suppression of cytokine production, MCP-1 (IC50), KIP-1 stimulation, 72 h): < 100 nM | IC50 ([7]; read-out: Suppression of cytokine production, MIG (IC50), CD3/CD28 stimulation, 72 h): < 100 nM | IC50 ([7]; read-out: Suppression of cytokine production, MIG (IC50), K562-CD19 stimulation, 72 h): < 100 nM | IC50 ([7]; read-out: Suppression of cytokine production, MIG (IC50), KIP-1 stimulation, 72 h): < 100 nM | IC50 ([7]; read-out: Suppression of cytokine production, MIP-1a (IC50), CD3/CD28 stimulation, 72 h): < 100 nM | IC50 ([7]; read-out: Suppression of cytokine production, MIP-1a (IC50), K562-CD19 stimulation, 72 h): < 100 nM | IC50 ([7]; read-out: Suppression of cytokine production, MIP-1a (IC50), KIP-1 stimulation, 72 h): 708 nM | IC50 ([7]; read-out: Suppression of cytokine production, MIP-1b (IC50), CD3/CD28 stimulation, 72 h): < 100 nM | IC50 ([7]; read-out: Suppression of cytokine production, MIP-1b (IC50), K562-CD19 stimulation, 72 h): < 100 nM | IC50 ([7]; read-out: Suppression of cytokine production, MIP-1b (IC50), KIP-1 stimulation, 72 h): 146 nM | IC50 ([7]; read-out: Suppression of cytokine production, Perforin (IC50), CD3/CD28 stimulation, 72 h): < 100 nM | IC50 ([7]; read-out: Suppression of cytokine production, Perforin (IC50), K562-CD19 stimulation, 72 h): < 100 nM | IC50 ([7]; read-out: Suppression of cytokine production, Perforin (IC50), KIP-1 stimulation, 72 h): < 100 nM | IC50 ([7]; read-out: Suppression of cytokine production, TNFa (IC50), CD3/CD28 stimulation, 72 h): < 100 nM | IC50 ([7]; read-out: Suppression of cytokine production, TNFa (IC50), K562-CD19 stimulation, 72 h): < 100 nM | IC50 ([7]; read-out: Suppression of cytokine production, TNFa (IC50), KIP-1 stimulation, 72 h): < 100 nM | Suppression of cytokine production, IFNg (IC50) ([7]; K562-CD19 stimulation): Suppress | Suppression of cytokine production, IL-6 (IC50) ([7]; K562-CD19 stimulation): Suppress
Structure (SMILES): CC[C@@H]1CN(C(=O)NCC(F)(F)F)C[C@@H]1c1cnc2cnc3[nH]ccc3n12 [upadacitinib]
% viability ([1]; dose 50 nM, day 4): 74.4% | % viability ([1]; dose 50 nM, day 8): 69.5% | % viability ([1]; dose 50 nM, day 12): 80.6% | % viability ([1]; dose 100 nM, day 4): 64.1% | % viability ([1]; dose 100 nM, day 8): 69.2% | % viability ([1]; dose 100 nM, day 12): 66.4% | % viabili. ([1]; 10 nM, Day 0): 84% | % viabili. ([1]; 10 nM, Day 4): 92.6% | % viabili. ([1]; 10 nM, Day 8): 88.4% | % viabili. ([1]; 10 nM, Day 12): 71.6% | % viabili. ([1]; 20 nM, Day 0): 84% | % viabili. ([1]; 20 nM, Day 4): 93.8% | % viabili. ([1]; 20 nM, Day 8): 92% | % viabili. ([1]; 20 nM, Day 12): 72.7% | % viabili. ([1]; 40 nM, Day 0): 84% | % viabili. ([1]; 40 nM, Day 4): 91.4% | % viabili. ([1]; 40 nM, Day 8): 77% | % viabili. ([1]; 40 nM, Day 12): 73.2% | % viabili. ([1]; 60 nM, Day 0): 84% | % viabili. ([1]; 60 nM, Day 4): 90.6% | % viabili. ([1]; 60 nM, Day 8): 90.5% | % viabili. ([1]; 60 nM, Day 12): 76.3% | % viabili. ([1]; 80 nM, Day 0): 84% | % viabili. ([1]; 80 nM, Day 4): 88.3% | % viabili. ([1]; 80 nM, Day 8): 86.4% | % viabili. ([1]; 80 nM, Day 12): 75% | % viabili. ([1]; 100 nM, Day 0): 84% | % viabili. ([1]; 100 nM, Day 4): 84.2% | % viabili. ([1]; 100 nM, Day 8): 84.3% | % viabili. ([1]; 100 nM, Day 12): 72.5% | % viabi. ([1]; 10 nM, Day 0): 84% | % viabi. ([1]; 10 nM, Day 4): 85.2% | % viabi. ([1]; 10 nM, Day 8): 72.1% | % viabi. ([1]; 10 nM, Day 12): 72.7% | % viabi. ([1]; 20 nM, Day 0): 84% | % viabi. ([1]; 20 nM, Day 4): 82.1% | % viabi. ([1]; 20 nM, Day 8): 70.1% | % viabi. ([1]; 20 nM, Day 12): 74.8% | % viabi. ([1]; 40 nM, Day 0): 84% | % viabi. ([1]; 40 nM, Day 4): 79.3% | % viabi. ([1]; 40 nM, Day 8): 59.3% | % viabi. ([1]; 40 nM, Day 12): 73.8% | % viabi. ([1]; 60 nM, Day 0): 84% | % viabi. ([1]; 60 nM, Day 4): 67.9% | % viabi. ([1]; 60 nM, Day 8): 76.4% | % viabi. ([1]; 60 nM, Day 12): 68.9% | % viabi. ([1]; 80 nM, Day 0): 84% | % viabi. ([1]; 80 nM, Day 4): 70.9% | % viabi. ([1]; 80 nM, Day 8): 68.8% | % viabi. ([1]; 80 nM, Day 12): 62.5% | % viabi. ([1]; 100 nM, Day 0): 84% | % viabi. ([1]; 100 nM, Day 4): 59.3% | % viabi. ([1]; 100 nM, Day 8): 60.9% | % viabi. ([1]; 100 nM, Day 12): 61.7% | concentration at and above which severe effects on expansion were seen ([1]; further dose titrations, depending on the mode of stimulation): 20 to 40 nM | viability at 0 day, 50 nM [2]: 75% | viability at 0 day, 100 nM [2]: 75% | viability at 4 day, 50 nM [2]: 63.2% | viability at 4 day, 100 nM [2]: 59.9% | viability at 8 day, 50 nM [2]: 65.3% | viability at 8 day, 100 nM [2]: 62% | viability at 12 day, 50 nM [2]: 79% | viability at 12 day, 100 nM [2]: 67.5% | Cmax ([3]; clinical dosing, patient sera, repeat dose studies): 73.9 ng/mL | Protein binding ([3]; plasma protein binding, reported): ~50% | Primary Cell IL-6 pSTAT1 signaling (% inhibition) ([4]; CD4 CART cells): 49% | Primary Cell IL-6 pSTAT3 signaling (% inhibition) ([4]; CD4 CART cells): 76% | Primary Cell IL-6 pSTAT5 signaling (% inhibition) ([4]; CD4 CART cells): 60% | Primary Cell IL-6 pSTAT1 signaling (% inhibition) ([4]; CD8 CART cells): 13% | Primary Cell IL-6 pSTAT3 signaling (% inhibition) ([4]; CD8 CART cells): 48% | Primary Cell IL-6 pSTAT5 signaling (% inhibition) ([4]; CD8 CART cells): 52% | Primary cell GM-CSF-pSTAT5, inhibition ([4]; Monocytes within bulk PBMCs): 97% | Primary Cell IL-6 pSTAT1 signaling (% inhibition) ([4]; PBMC CD4 T cells): 74% | Primary Cell IL-6 pSTAT3 signaling (% inhibition) ([4]; PBMC CD4 T cells): 91% | Primary Cell IL-6 pSTAT5 signaling (% inhibition) ([4]; PBMC CD4 T cells): 87% | Primary Cell IL-6 pSTAT1 signaling (% inhibition) ([4]; PBMC CD8 T cells): 32% | Primary Cell IL-6 pSTAT3 signaling (% inhibition) ([4]; PBMC CD8 T cells): 70% | Primary Cell IL-6 pSTAT5 signaling (% inhibition) ([4]; PBMC CD8 T cells): 56% | Primary Cell IL-6 pSTAT1 signaling (% inhibition) ([4]; PBMC Monocytes): 48% | Primary Cell IL-6 pSTAT3 signaling (% inhibition) ([4]; PBMC Monocytes): 93% | Primary Cell IL-6 pSTAT5 signaling (% inhibition) ([4]; PBMC Monocytes): 48% | Primary cell GM-CSF-pSTAT5, inhibition ([4]; T cells within bulk PBMCs): 47% | impact on CAR-T serial killing (percent cytotoxicity) [5]: negative impacts
